Laboratory results reported in US6919457B2, “3-(imidazolyl)-2-aminopropanoic acids” (Pfizer, Inc., priority 2002, dated 2005).
pKi: −log10 of the molar value.

Assays:
[1] = biological target: T1, TAFIa (Homo sapiens, UniProt Q96IY4); assay: Assay for TAFIa inhibition (Ki determination, FAAL substrate hydrolysis); assay type: biochemical; details: calculated from IC50 using the Cheng-Prusoff equation, activated human TAFI, 24° C.
T1 sequence (Q96IY4 115-423): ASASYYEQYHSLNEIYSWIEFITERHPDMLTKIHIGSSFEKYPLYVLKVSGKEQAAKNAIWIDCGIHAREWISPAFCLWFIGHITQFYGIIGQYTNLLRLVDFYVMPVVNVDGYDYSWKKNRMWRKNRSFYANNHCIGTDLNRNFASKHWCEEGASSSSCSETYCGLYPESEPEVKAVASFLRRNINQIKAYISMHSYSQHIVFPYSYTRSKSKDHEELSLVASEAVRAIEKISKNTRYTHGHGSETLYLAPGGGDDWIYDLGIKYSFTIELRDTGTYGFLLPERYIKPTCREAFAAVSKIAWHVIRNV
Experimental: The compounds of the present invention may be tested using the following assay, which is based on that disclosed in Boffa et al., J. Biol. Chem. 1998, 273, 2127. The compounds are incubated with activated TAFI and a standard substrate for TAFIa, the rate of hydrolysis of the substrate is determined and compared to the rate of hydrolysis in the absence of the compounds, and the amount of inhibition expressed in terms of Ki.
Human TAFI (recombinant or purified) was activated by incubating 20 μl of stock solution (360 μg/ml) with 10 μl of human thrombin (10 NIH units/ml), 10 μl of rabbit thrombomodulin (30 μg/ml), 6 μl calcium chloride (50 mM) in 50 μL of 20 mM HEPES (N-[2-hydroxyethyl]piperazine-N-[2-ethanesulfonic acid]) buffer containing 150 mM sodium chloride and 0.01% TWEEN 80 (polyoxyethylene-sorbitan monooleate) pH 7.6 for 20 minutes at 22° C. At the end of the incubation period, thrombin was neutralised by the addition of 10 μL of PPACK (D-Phe-Pro-Arg chloromethyl ketone) (100 nM). The resulting TAFIa solution was stored on ice for 5 minutes and finally diluted with 175 μl of HEPES buffer.
ii) Ki Determination (TAFIa)
(§1) A number of different dilutions of the test compound in water were made up. To 20 μl of each dilution was added 150 μl of HEPES buffer and 10 μl of TAFIa, which was then pre-incubated for 15 minutes at 24° C. To each dilution was then added 20 μl furylacryloyl-alanyl-lysine (FAAL) at a standard concentration. Substrate turnover was measured by reading the absorbance of the reaction mixture at 330 nm every 15 seconds for 30 minutes. The reaction was performed at 24° C. and samples were mixed for 3 seconds prior to each absorbance reading.
(§2) A graph of % inhibition against test compound concentration was then plotted; from which was calculated the IC50 value. The Ki value was then calculated using the Cheng-Prusoff equation.
Two controls, positive and negative, were used to check the accuracy of the results in each case. For the first control, the assay was performed as above, but with 20 μl of water rather than a dilution of the test compound. […] For the second control, the assay was performed as above, but with an effective amount of a non specific carboxypeptidase inhibitor rather than a dilution of the test compound.

[2] = biological target: T2, human CPN (Homo sapiens, UniProt P15169); assay: CPN Ki determination (TAFIa assay with human CPN substituted for TAFIa); assay type: biochemical; details: for pKi: human CPN substituted for TAFIa, calculated Ki; for Selectivity: selectivity for TAFIa over CPN, comparing Ki for CPN with Ki for TAFIa
T2 sequence (P15169 21-458): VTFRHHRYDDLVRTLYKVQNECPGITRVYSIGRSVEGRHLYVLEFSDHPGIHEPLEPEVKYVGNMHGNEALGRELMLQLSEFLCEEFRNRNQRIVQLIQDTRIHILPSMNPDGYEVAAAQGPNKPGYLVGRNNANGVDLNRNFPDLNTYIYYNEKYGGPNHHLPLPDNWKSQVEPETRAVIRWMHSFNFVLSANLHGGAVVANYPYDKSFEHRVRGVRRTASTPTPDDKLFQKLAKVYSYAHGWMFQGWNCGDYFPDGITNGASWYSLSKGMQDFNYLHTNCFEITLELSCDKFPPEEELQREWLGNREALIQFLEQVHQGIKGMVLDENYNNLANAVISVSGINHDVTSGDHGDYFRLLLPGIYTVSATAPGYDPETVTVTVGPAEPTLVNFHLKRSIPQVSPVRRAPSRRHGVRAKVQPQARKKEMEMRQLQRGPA
T2 sequence (P22792 22-545 partner): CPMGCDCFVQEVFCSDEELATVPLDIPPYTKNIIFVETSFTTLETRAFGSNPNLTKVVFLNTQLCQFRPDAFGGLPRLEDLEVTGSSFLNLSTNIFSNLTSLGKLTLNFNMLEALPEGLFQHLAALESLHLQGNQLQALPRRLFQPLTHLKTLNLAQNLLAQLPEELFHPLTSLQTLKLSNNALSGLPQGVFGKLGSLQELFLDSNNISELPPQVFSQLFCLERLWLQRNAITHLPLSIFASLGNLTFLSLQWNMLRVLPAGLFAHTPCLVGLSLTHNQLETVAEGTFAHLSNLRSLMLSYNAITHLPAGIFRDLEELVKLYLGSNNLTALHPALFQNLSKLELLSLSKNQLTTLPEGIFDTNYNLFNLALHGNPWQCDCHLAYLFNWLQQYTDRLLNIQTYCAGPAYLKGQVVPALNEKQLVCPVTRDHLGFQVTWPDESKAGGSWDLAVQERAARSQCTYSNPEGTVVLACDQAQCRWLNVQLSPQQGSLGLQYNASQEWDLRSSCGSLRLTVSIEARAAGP
Experimental: as §1, §2
The selectivity of the compounds of the present invention for TAFIa over CPN was determined by calculating the Ki of the compounds of the present invention for CPN, then comparing it to the Ki for TAFIa. The Ki was calculated using the assay for the calculation of TAFIa Ki, but substituting 10 μl of human CPN for 10 μl of TAFIa.

| pKi [1] | pKi [2] | Selectivity [2] | SMILES |
| --- | --- | --- | --- |
| 7.22 | – | – | N[C@H]1CCN([C@@H](Cc2c[nH]cn2)C(=O)O)C1 [Example 2, (+)-(2S)-2-[(3S)-3-Aminopyrrolidinyl]-3-(1H-imidazol-4-yl)propanoic Acid] |
| 7.66 | < 5.00 | >450 | CCCn1cnc(C[C@@H](C(=O)O)N2CC[C@H](N)C2)c1 [Example 4, (+)-(2S)-2-[(3S)-3-Aminopyrrolidinyl]-3-(1-propyl-1H-imidazol-4-yl)propanoic Acid] |
| 8.15 | < 5.00 | >1400 | N[C@H]1CCN([C@@H](Cc2cn(CCC3CCCCC3)cn2)C(=O)O)C1 [Example 6, (+)-(2S)-2-[(3S)-3-Aminopyrrolidinyl]-3-[1-(2-cyclohexylethyl)-1H-imidazol-4-yl]propanoic Acid] |
| 8.00 | – | – | N[C@H]1CCN([C@@H](Cc2cn(CCc3ccccc3)cn2)C(=O)O)C1 [Example 8, (+)-(2S)-2-[(3S)-3-Aminopyrrolidinyl]-3-[1-(2-phenylethyl)-1H-imidazol-4-yl]propanoic Acid] |
| 8.10 | – | – | N[C@H]1CCN([C@@H](Cc2cn(-c3ccccc3)cn2)C(=O)O)C1 [Example 9, (+)-(2S)-2-[(3S)-3-Aminopyrrolidinyl]-3-[1-phenyl-1H-imidazol-4-yl]propanoic Acid] |
